Earlier results in patent US20210128676A1, “METHOD OF TREATING PATIENTS WITH H[…] TYPE 1 AND LOW MEAN ARTERIAL PRESSURE” (Mallinckrodt Hospital Products IP Unlimited Company, priority 2019, published 2021).
Positions of bridges follow the written chain, without caps; N, C: chain ends. Residues, ends and D or L forms follow the SMILES beside them.

Settings: in vivo

Structure (SMILES): NCCCC[C@H](NC(=O)[C@@H]1CCCN1C(=O)[C@@H]1CSSC[C@H](NC(=O)CNC(=O)CNC(=O)CN)C(=O)N[C@@H](Cc2ccc(O)cc2)C(=O)N[C@@H](Cc2ccccc2)C(=O)N[C@@H](CCC(N)=O)C(=O)N[C@@H](CC(N)=O)C(=O)N1)C(=O)NCC(N)=O [Terlipressin, N—[N—(N-glycylglycyl)glycyl]-8-L-lysinevasopressin] (H-GGGCYFQNCPKG-NH2; disulfide 4-9 (inferred))
- half-life: 6 h

Structure (SMILES): NC(=O)CC[C@@H]1NC(=O)[C@H](Cc2ccccc2)NC(=O)[C@H](Cc2ccc(O)cc2)NC(=O)[C@@H](N)CSSC[C@@H](C(=O)N2CCC[C@H]2C(=O)N[C@@H](CCCN=C(N)N)C(=O)NCC(N)=O)NC(=O)[C@H](CC(N)=O)NC1=O [vasopressin]
- duration of action: 30 to 60 min
- half-life: 0.1 h
